Experimental data as given in patent US4766151A, “Ethers and oxime ethers of alkylamino alcohols as medicaments and novel products, and processes for their preparation” (Laboratoires, P.O.S., priority 1982, dated 1988).
Counter-ions that a name gives are not always drawn.

Legend:
[1] = molecular target: T1, isolated trachea of a guinea pig (Cavia porcellus, UniProt Q8K4Z4); test: pA2 measurement of beta-blocking activity on the isolated trachea of a guinea pig; type: cell-based
T1 construct: isolated trachea of a guinea pig; from tissue; host or cells: guinea pig isolated trachea
Experimental: (§1) The PA2 is the co-logarithm of the concentration of antagonist in the presence of which it requires twice as much agonist as in its absence in order to achieve the same effect; see, on this subject: Calculation of the PAx, Technical Leaflet No. 16, J. Pharmacol. Paris 1971, 2, 3, 373-380. The PA2 was measured on the isolated auricle of a guinea pig and on the isolated trachea of a guinea pig. The product used by way of comparison is the following compound: [drawing 23]

[2] = molecular target: T2, isolated trachea of a guinea pig (Cavia porcellus); test: as above; type: cell-based
T2 construct: isolated trachea of a guinea pig; from tissue; host or cells: guinea pig isolated trachea
Experimental: as §1

[3] = molecular target: T3, isolated auricle of a guinea pig (Cavia porcellus); test: pA2 measurement of beta-blocking activity on the isolated auricle of a guinea pig; type: cell-based; conditions: chronotropic
T3 construct: isolated auricle of a guinea pig; from tissue; host or cells: guinea pig isolated auricle (atrium)
Experimental: as §1

[4] = molecular target: T4, isolated auricle of a guinea pig (Cavia porcellus, UniProt H0W3H1); test: as above; type: cell-based; conditions: inotropic
T4 construct: isolated auricle of a guinea pig; from tissue; host or cells: guinea pig isolated auricle (atrium)
Experimental: as §1

[5] = prior art; cited from earlier work

T3 sequence (H0W3H1 1-470): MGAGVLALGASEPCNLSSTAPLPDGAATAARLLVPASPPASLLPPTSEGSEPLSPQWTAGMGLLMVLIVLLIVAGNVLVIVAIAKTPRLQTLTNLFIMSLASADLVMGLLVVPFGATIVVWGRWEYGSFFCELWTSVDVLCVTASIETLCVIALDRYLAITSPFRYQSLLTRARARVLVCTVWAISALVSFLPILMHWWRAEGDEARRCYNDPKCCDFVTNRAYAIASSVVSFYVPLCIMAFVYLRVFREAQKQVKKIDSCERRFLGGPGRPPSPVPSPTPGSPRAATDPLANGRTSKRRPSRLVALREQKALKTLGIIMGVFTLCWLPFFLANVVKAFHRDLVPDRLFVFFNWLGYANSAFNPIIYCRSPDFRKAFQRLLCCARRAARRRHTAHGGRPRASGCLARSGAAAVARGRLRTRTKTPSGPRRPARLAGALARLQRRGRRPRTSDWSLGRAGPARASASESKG
T4 sequence (H0W3H1 1-470): as above
T1 sequence (Q8K4Z4 whole entry): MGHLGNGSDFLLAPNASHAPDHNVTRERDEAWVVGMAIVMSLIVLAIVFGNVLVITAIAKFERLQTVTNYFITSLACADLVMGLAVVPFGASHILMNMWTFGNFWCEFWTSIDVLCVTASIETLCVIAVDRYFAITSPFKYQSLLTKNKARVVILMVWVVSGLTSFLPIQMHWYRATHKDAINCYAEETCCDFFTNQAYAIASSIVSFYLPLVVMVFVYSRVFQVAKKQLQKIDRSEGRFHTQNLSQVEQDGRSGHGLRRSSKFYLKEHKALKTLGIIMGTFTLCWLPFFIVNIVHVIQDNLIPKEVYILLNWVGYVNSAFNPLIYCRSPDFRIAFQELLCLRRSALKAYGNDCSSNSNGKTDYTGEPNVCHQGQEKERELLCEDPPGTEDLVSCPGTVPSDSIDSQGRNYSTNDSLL
T2 sequence (Q8K4Z4 whole entry): as above

Row | Trachea pA2 [1] | Kb [2] [nM] | Kb [3] [nM] | Kb [4] [nM] | SMILES | undesirable secondary effects in treatment of glaucomas [5]
1 | 6.23 |  | 79.4 |  | CC(C)(C)NCC(O)COCC1CC1 (stereo not drawn) [compound 3, 1-N-tert.-Butylamino-3-cyclopropylmethoxy-propan-2-ol] | 
2 |  |  | 5.01 | 7.24 | CC(C)(C)NCC(O)CON=C(C1CC1)C1CC1 (stereo not drawn) [Compound No. 2, 1-N-tert.-Butylamino-3-(dicyclopropyl-ketoneoximino)-propan-2-ol] | 

More lines, now with the values behind:

Row | SMILES | Trachea pA2 [1] | Kb [2] [nM] | Kb [3] [nM] | Kb [4] [nM] | undesirable secondary effects in treatment of glaucomas [5]
3 | C=CC(C)(C)OCC(O)CNC(C)(C)C (stereo not drawn) [Comparison, reference compound] | 4.96 |  |  |  | 
4 | CC(=NOCC(O)CNC(C)(C)C)C1CC1 (stereo not drawn) [Compound No. 1, 1-N-tert.-Butylamino-3-(cyclopropyl-methylketoneoximino)-propan-2-ol] |  | 0.912 | 2 | 1 | 
5 | CC(C)(C)NC[C@H](O)COc1nsnc1N1CCOCC1 [timolol maleate] |  |  |  |  | bronchial disorders (asthma) or cardiovascular disorders (orthostatic hypotension and slowing down of the pulse rate)
